{"source": "paper PMC8231113", "about": "“Protein Secondary Structure Affects Glycan Clustering in Native Mass Spectrometry” (Life, 2021)", "key": {"GII.4 Saga P dimer": {"biological_target": "GII.4 Saga P dimer (Norovirus GII.4 (human norovirus), UniProt B5BTR7)", "assay": "Native MS, specific glycan binding to P dimer after reference protein correction", "set-up": "species or system human norovirus (hNoV)", "conditions": "for Kd: read-out: KD for HBGA B", "method": "(§1) Prior to MS analysis, purified P dimers were buffer exchanged to 150 mM ammonium acetate (Sigma-Aldrich, reagent grade ≥98%) at pH 7 via centrifugal filter units at 12,000× g at 4 °C (Vivaspin 500, MWCO 10000, Sartorius). Glycans for native MS analysis were mixed with 1 µM (per monomer) purified GII.4 Saga P dimer and 3 µM of the reference proteins at indicated concentrations. Native mass spectra were measured at room temperature in positive ion mode on a high mass modified LCT Premier mass spectrometer (Waters/Micromass, UK and MS Vision, the Netherlands) with a nano-ESI source. In house-made gold-coated electrospray capillaries were used for direct-sample infusion without any accessory chromatographic separation. The voltages and pressures were optimized for non-covalent protein complexes. The gas pressure used in the source hexapole was set between 6.5 and 6.8 × 10^−2 mbar argon optimized for minimal complex dissociation and the backing pressure of the source roughing pump was set between 7.0 and 8.5 mbar. Spectra were recorded with applied voltages for the capillary and cone of 1.20 kV and 240 V, respectively. Note that charge state distributions for P dimers were sometimes slightly shifted as was the degree of glycan clustering per charge state. These changes were highly variable and not quantifiable.\n(§2) For calibration of the raw data, a 25 mg/mL cesium iodide spectrum from the same day was used. MassLynx V4.1 (Waters, Manchester, UK) was used to assign peak series to protein species and to determine the mass after minimal smoothing. Furthermore, OriginPro 2016 SR2 (OriginLab, Northampton, MA, USA) was used for spectral deconvolution and curve fitting. Correction for nonspecific protein-ligand clustering was performed as described. Corrected peak areas were averaged and normalized to the free-protein signal. Data were based on at least three independent measurements. Python code Panda and Numpy package were used to calculate the specific binding of P dimers according to the glycan clustering ratio obtained from the selected reference protein candidates. Seaborn and matplotlib.pyplot package were imported into a python script to plot the results. The module of sklearn.linear model was applied for linear regression. The matplotlib and heatmap package were used to plot the heatmap.\nData from native ESI MS measurements were translated into dissociation constants (KD values). The detailed calculations were based on the equations listed below. A protein (P) and a glycan ligand (L) form a complex through non-covalent interactions leading to a reversible association described by (Equation (1)):(1) P+L⇌PL when equilibrium is reached, the KD can be calculated directly from the concentrations via the law of mass action (Equation (2)):(2) KD=[Pfree][Lfree]/[PL]\n(§3) Theoretically, the KD is calculated by measuring the concentration of the three components (Pfree, Lfree, PL) in solution. Usually, these values are only indirectly accessible because they require ligand titration up to binding saturation. However, native MS allows for the directly measurement of Pfree and PL, from which Lfree can be calculated using the input concentrations. In the present work, the non-covalent interaction was measured in the gas phase assuming identical ESI and detection efficiency for free and glycan-associated proteins, both for the analyte and the reference protein. […] For P dimers, the equations reflect glycan binding to the individual monomers assuming that binding sites on each monomer are equal and independent.\nUsing R described in Equation (3), the KD calculation can be re-written into Equation (4) with the known initial concentration of glycan ligand [L0] and protein [P0], adapted from Sun et al.:(3) R=PLequil∕Pequil=∑nA(PL^n+)∕n∕∑nA(P^n+)∕n (4) KD =L0−RP0/1+R/R […]"}, "[1]": {"biological_target": "T1, human apo-transferrin (apo-TFF) (Homo sapiens, UniProt P02787)", "T1 construct": "purchased Sigma-Aldrich (Merck, Germany)", "T1 sequence (P02787 20-698)": "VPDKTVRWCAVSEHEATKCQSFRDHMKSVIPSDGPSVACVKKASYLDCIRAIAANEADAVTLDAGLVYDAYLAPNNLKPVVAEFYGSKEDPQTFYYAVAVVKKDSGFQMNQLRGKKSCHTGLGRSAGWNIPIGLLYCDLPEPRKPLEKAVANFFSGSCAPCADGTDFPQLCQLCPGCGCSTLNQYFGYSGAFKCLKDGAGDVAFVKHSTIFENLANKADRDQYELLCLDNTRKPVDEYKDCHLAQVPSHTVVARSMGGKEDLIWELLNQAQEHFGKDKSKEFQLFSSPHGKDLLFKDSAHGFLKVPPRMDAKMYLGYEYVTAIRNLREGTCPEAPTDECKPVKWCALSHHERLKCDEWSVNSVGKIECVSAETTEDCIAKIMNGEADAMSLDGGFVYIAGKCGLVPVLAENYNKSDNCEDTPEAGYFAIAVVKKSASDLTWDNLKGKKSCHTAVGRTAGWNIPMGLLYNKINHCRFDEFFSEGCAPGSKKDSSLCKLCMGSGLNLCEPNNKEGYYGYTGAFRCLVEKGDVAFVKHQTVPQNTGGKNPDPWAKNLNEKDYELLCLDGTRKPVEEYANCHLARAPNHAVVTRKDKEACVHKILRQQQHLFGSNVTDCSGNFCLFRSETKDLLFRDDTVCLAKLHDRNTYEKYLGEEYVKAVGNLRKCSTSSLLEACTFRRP", "assay": "Native MS glycan clustering to reference protein apo-TFF", "assay_type": "binding", "conditions": "on apo-TFF", "method": "as §1, §2, §3\nUsing R described in Equation (3), the KD calculation can be re-written into Equation (4) with the known initial concentration of glycan ligand [L0] and protein [P0], adapted from Sun et al.:(3) R=PLequil∕Pequil=∑nA(PL^n+)∕n∕∑nA(P^n+)∕n (4) KD =L0−RP0/1+R/R\nFor the carbohydrate-binding experiments, it was essential to keep the initial protein concentrations and pH value constant during the analysis of the protein-carbohydrate solutions. While acidification occurs in any ESI droplet, the remaining solution in the capillary changes pH over time. Therefore, accumulated spectra were obtained within 10 min after the voltages were applied to minimize the influence of pH changes during the measurements. […]"}}, "note": "Read-outs that look alike come from different tables or passages of the source.", "data": [{"compound": "CC(=O)N[C@H]1C(O)O[C@H](CO)[C@@H](O)[C@@H]1O[C@@H]1O[C@H](CO)[C@H](O)[C@H](O[C@H]2O[C@H](CO)[C@H](O)[C@H](O)[C@H]2O)[C@H]1O[C@@H]1O[C@@H](C)[C@@H](O)[C@@H](O)[C@@H]1O", "note": "(stereo partly shown) [HBGA B, Galα1-3(Fucα1-2)Galβ1-3GlcNAc]", "values": [{"measurement": "specific binding after ADH based protein clustering correction", "setting": "GII.4 Saga P dimer; Gb4: any listed glycan concentration, HBGA B: 500 µM", "result": "a single binding event"}, {"measurement": "Kd", "setting": "GII.4 Saga P dimer; correction with ref. protein ADH", "result": "24000 ± 16000", "unit": "µM"}, {"measurement": "Kd", "setting": "GII.4 Saga P dimer; correction with ref. protein CA", "result": "400 ± 100", "unit": "µM"}, {"measurement": "Kd", "setting": "GII.4 Saga P dimer; correction with ref. protein Cyt c", "result": "160 ± 50", "unit": "µM"}, {"measurement": "Kd", "setting": "GII.4 Saga P dimer; correction with ref. protein GFP", "result": "900 ± 350", "unit": "µM"}, {"measurement": "Kd", "setting": "GII.4 Saga P dimer; correction with ref. protein Myo", "result": "250 ± 100", "unit": "µM"}, {"measurement": "Kd", "setting": "GII.4 Saga P dimer; correction with ref. protein Ubq", "result": "200 ± 130", "unit": "µM"}, {"measurement": "Bound number of carbohydrates on Saga P dimer", "setting": "GII.4 Saga P dimer; ref. protein ADH, glycan 100 µM", "result": 0}, {"measurement": "Bound number of carbohydrates on Saga P dimer", "setting": "GII.4 Saga P dimer; ref. protein ADH, glycan 200 µM", "result": 0}, {"measurement": "Bound number of carbohydrates on Saga P dimer", "setting": "GII.4 Saga P dimer; ref. protein ADH, glycan 300 µM", "result": 0}, {"measurement": "Bound number of carbohydrates on Saga P dimer", "setting": "GII.4 Saga P dimer; ref. protein ADH, glycan 400 µM", "result": 0}, {"measurement": "Bound number of carbohydrates on Saga P dimer", "setting": "GII.4 Saga P dimer; ref. protein ADH, glycan 500 µM", "result": 1}, {"measurement": "Bound number of carbohydrates on Saga P dimer", "setting": "GII.4 Saga P dimer; ref. protein CA, glycan 100 µM", "result": 1}, {"measurement": "Bound number of carbohydrates on Saga P dimer", "setting": "GII.4 Saga P dimer; ref. protein CA, glycan 200 µM", "result": 2}, {"measurement": "Bound number of carbohydrates on Saga P dimer", "setting": "GII.4 Saga P dimer; ref. protein CA, glycan 300 µM", "result": 2}, {"measurement": "Bound number of carbohydrates on Saga P dimer", "setting": "GII.4 Saga P dimer; ref. protein CA, glycan 400 µM", "result": 2}, {"measurement": "Bound number of carbohydrates on Saga P dimer", "setting": "GII.4 Saga P dimer; ref. protein CA, glycan 500 µM", "result": 2}, {"measurement": "Bound number of carbohydrates on Saga P dimer", "setting": "GII.4 Saga P dimer; ref. protein Cyto c, glycan 100 µM", "result": 2}, {"measurement": "Bound number of carbohydrates on Saga P dimer", "setting": "GII.4 Saga P dimer; ref. protein Cyto c, glycan 200 µM", "result": 3}, {"measurement": "Bound number of carbohydrates on Saga P dimer", "setting": "GII.4 Saga P dimer; ref. protein Cyto c, glycan 300 µM", "result": 4}, {"measurement": "Bound number of carbohydrates on Saga P dimer", "setting": "GII.4 Saga P dimer; ref. protein Cyto c, glycan 400 µM", "result": 4}, {"measurement": "Bound number of carbohydrates on Saga P dimer", "setting": "GII.4 Saga P dimer; ref. protein Cyto c, glycan 500 µM", "result": 4}, {"measurement": "Bound number of carbohydrates on Saga P dimer", "setting": "GII.4 Saga P dimer; ref. protein GFP, glycan 100 µM", "result": 1}, {"measurement": "Bound number of carbohydrates on Saga P dimer", "setting": "GII.4 Saga P dimer; ref. protein GFP, glycan 200 µM", "result": 1}, {"measurement": "Bound number of carbohydrates on Saga P dimer", "setting": "GII.4 Saga P dimer; ref. protein GFP, glycan 300 µM", "result": 2}, {"measurement": "Bound number of carbohydrates on Saga P dimer", "setting": "GII.4 Saga P dimer; ref. protein GFP, glycan 400 µM", "result": 2}, {"measurement": "Bound number of carbohydrates on Saga P dimer", "setting": "GII.4 Saga P dimer; ref. protein GFP, glycan 500 µM", "result": 2}, {"measurement": "Bound number of carbohydrates on Saga P dimer", "setting": "GII.4 Saga P dimer; ref. protein LDH, glycan 100 µM", "result": 0}, {"measurement": "Bound number of carbohydrates on Saga P dimer", "setting": "GII.4 Saga P dimer; ref. protein LDH, glycan 200 µM", "result": 0}, {"measurement": "Bound number of carbohydrates on Saga P dimer", "setting": "GII.4 Saga P dimer; ref. protein LDH, glycan 300 µM", "result": 0}, {"measurement": "Bound number of carbohydrates on Saga P dimer", "setting": "GII.4 Saga P dimer; ref. protein LDH, glycan 400 µM", "result": 0}, {"measurement": "Bound number of carbohydrates on Saga P dimer", "setting": "GII.4 Saga P dimer; ref. protein LDH, glycan 500 µM", "result": 1}, {"measurement": "Bound number of carbohydrates on Saga P dimer", "setting": "GII.4 Saga P dimer; ref. protein Myo, glycan 100 µM", "result": 2}, {"measurement": "Bound number of carbohydrates on Saga P dimer", "setting": "GII.4 Saga P dimer; ref. protein Myo, glycan 200 µM", "result": 3}, {"measurement": "Bound number of carbohydrates on Saga P dimer", "setting": "GII.4 Saga P dimer; ref. protein Myo, glycan 300 µM", "result": 3}, {"measurement": "Bound number of carbohydrates on Saga P dimer", "setting": "GII.4 Saga P dimer; ref. protein Myo, glycan 400 µM", "result": 3}, {"measurement": "Bound number of carbohydrates on Saga P dimer", "setting": "GII.4 Saga P dimer; ref. protein Myo, glycan 500 µM", "result": 4}, {"measurement": "Bound number of carbohydrates on Saga P dimer", "setting": "GII.4 Saga P dimer; ref. protein Ubq, glycan 100 µM", "result": 2}, {"measurement": "Bound number of carbohydrates on Saga P dimer", "setting": "GII.4 Saga P dimer; ref. protein Ubq, glycan 200 µM", "result": 3}, {"measurement": "Bound number of carbohydrates on Saga P dimer", "setting": "GII.4 Saga P dimer; ref. protein Ubq, glycan 300 µM", "result": 4}, {"measurement": "Bound number of carbohydrates on Saga P dimer", "setting": "GII.4 Saga P dimer; ref. protein Ubq, glycan 400 µM", "result": 4}, {"measurement": "Bound number of carbohydrates on Saga P dimer", "setting": "GII.4 Saga P dimer; ref. protein Ubq, glycan 500 µM", "result": 4}, {"measurement": "Bound number of carbohydrates on Saga P dimer", "setting": "GII.4 Saga P dimer; ref. protein apo-TFF, glycan 100 µM", "result": 1}, {"measurement": "Bound number of carbohydrates on Saga P dimer", "setting": "GII.4 Saga P dimer; ref. protein apo-TFF, glycan 200 µM", "result": 1}, {"measurement": "Bound number of carbohydrates on Saga P dimer", "setting": "GII.4 Saga P dimer; ref. protein apo-TFF, glycan 300 µM", "result": 1}, {"measurement": "Bound number of carbohydrates on Saga P dimer", "setting": "GII.4 Saga P dimer; ref. protein apo-TFF, glycan 400 µM", "result": 1}, {"measurement": "Bound number of carbohydrates on Saga P dimer", "setting": "GII.4 Saga P dimer; ref. protein apo-TFF, glycan 500 µM", "result": 2}, {"measurement": "Glycan-Clustering Ratio R", "setting": "[1]; 100 µM glycan", "result": "0.37±0.03"}, {"measurement": "Glycan-Clustering Ratio R", "setting": "[1]; 200 µM glycan", "result": "0.56±0.05"}, {"measurement": "Glycan-Clustering Ratio R", "setting": "[1]; 300 µM glycan", "result": "0.62±0.03"}, {"measurement": "Glycan-Clustering Ratio R", "setting": "[1]; 400 µM glycan", "result": "0.74±0.01"}, {"measurement": "Glycan-Clustering Ratio R", "setting": "[1]; 500 µM glycan", "result": "0.82 ± 0.03"}]}]}
